According to US11325936B2, “Sialidase inhibitors and preparation thereof” (The Regents of the University of California, priority 2017, dated 2022):

What was measured:
[1] = molecular target: T1, SpNanB (Streptococcus pneumoniae serotype 4, UniProt Q54727, E68D/K536E/K577E/N393D/S59P); test: Sialidase inhibition assay (Example 7); assay type: biochemical; conditions: for Percentage inhibition (%) against SpNanB: 1 mM of each inhibitor, substrate Neu5Acα2-3GalβpNP 0.3 mM, pH 6.0; for inhibition at 1000 µM: pH 6, read-out: Percentage inhibition (%) against SpNanB
[2] = molecular target: T2, AuSialidase (Paenarthrobacter ureafaciens, UniProt Q5W7Q2); test: Sialidase inhibition assay (Example 7); assay type: biochemical, Arthrobacter ureafaciens; conditions: for inhibition at 1000 µM: read-out: Percentage inhibition (%) against AuSialidase
T2 sequence (Q5W7Q2 39-990): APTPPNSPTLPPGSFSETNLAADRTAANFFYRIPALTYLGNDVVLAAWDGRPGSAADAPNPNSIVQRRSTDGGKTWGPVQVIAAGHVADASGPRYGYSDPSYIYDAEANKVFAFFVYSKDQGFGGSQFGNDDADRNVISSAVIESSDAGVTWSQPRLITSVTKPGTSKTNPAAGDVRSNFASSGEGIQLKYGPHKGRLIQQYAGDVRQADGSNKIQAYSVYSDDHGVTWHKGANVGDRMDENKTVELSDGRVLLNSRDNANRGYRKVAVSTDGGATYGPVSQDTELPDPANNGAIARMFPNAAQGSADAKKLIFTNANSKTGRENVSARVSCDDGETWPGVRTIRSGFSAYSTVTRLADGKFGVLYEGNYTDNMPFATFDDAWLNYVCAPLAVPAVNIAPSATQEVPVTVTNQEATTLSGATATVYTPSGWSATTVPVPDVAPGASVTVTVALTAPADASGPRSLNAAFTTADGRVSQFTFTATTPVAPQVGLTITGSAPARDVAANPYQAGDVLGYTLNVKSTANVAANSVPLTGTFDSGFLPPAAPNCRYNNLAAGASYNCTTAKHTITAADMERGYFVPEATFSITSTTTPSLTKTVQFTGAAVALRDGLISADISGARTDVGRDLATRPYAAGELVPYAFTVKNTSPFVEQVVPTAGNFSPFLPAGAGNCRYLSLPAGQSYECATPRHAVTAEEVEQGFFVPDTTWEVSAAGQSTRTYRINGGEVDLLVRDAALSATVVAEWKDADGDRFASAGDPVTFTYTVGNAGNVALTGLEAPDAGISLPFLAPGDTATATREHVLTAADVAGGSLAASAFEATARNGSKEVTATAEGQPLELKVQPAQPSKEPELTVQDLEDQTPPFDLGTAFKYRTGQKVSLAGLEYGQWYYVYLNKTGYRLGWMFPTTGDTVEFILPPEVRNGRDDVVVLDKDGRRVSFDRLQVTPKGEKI

[3] = molecular target: PmST1 (Pasteurella multocida, UniProt Q15KI8); test: Sialidase inhibition assay (Example 7); assay type: biochemical; conditions: 1 mM of each inhibitor; substrate Neu5Acα2-3GalβpNP 0.3 mM; CMP 0.4 mM; pH 5.5; read-out: Percentage inhibition (%) against PmST1
[4] = system: CpNanI; assay type: biochemical, Clostridium perfringens; conditions: 1 mM of each inhibitor; substrate Neu5Acα2-3GalβpNP 0.3 mM; pH 5.0
[5] = molecular target: hNEU2 (Homo sapiens, UniProt Q9Y3R4); test: Sialidase inhibition assay (Example 7); assay type: biochemical; conditions: 1 mM of each inhibitor; substrate Neu5Acα2-3GalβpNP 0.3 mM; pH 5.0; read-out: Percentage inhibition (%) against hNEU2
[6] = molecular target: VcSialidase (Vibrio cholerae serotype O1, UniProt P0C6E9); test: Sialidase inhibition assay (Example 7); assay type: biochemical; conditions: for inhibition at 1000 µM: pH 5.5, read-out: Percentage inhibition (%) against VcSialidase
[7] = molecular target: SpNanC (Streptococcus pneumoniae, UniProt A0A0H2UQE4); test: Sialidase inhibition assay (Example 7); conditions: for inhibition at 1000 µM: pH 6.5, read-out: Percentage inhibition (%) against SpNanC
[8] = molecular target: BiNanH2 (Bifidobacterium longum subsp. infantis, UniProt A0ACD7UU12); test: Sialidase inhibition assay (Example 7); assay type: biochemical; conditions: pH 5, read-out: Percentage inhibition (%) against BiNanH2
[9] = molecular target: SpNanA (Streptococcus pneumoniae, UniProt P62575); test: Sialidase inhibition assay (Example 7); assay type: biochemical; conditions: for Percentage inhibition (%) against SpNanA: 1 mM of each inhibitor, substrate Neu5Acα2-3GalβpNP 0.3 mM, pH 6.0; for inhibition at 1000 µM: pH 6, read-out: Percentage inhibition (%) against SpNanA
[10] = molecular target: T1, SpNanB; test: Hydrolysis of 2,7-anhydro-sialic acids by SpNanB; conditions: SpNanB (1.0 mg/mL); 37° C. for 24 h
[11] = 1 mM of each inhibitor, substrate Neu5Acα2-3GalβpNP 0.3 mM, pH 5.5

Sequence of SpNanC (A0A0H2UQE4 entry or part of it): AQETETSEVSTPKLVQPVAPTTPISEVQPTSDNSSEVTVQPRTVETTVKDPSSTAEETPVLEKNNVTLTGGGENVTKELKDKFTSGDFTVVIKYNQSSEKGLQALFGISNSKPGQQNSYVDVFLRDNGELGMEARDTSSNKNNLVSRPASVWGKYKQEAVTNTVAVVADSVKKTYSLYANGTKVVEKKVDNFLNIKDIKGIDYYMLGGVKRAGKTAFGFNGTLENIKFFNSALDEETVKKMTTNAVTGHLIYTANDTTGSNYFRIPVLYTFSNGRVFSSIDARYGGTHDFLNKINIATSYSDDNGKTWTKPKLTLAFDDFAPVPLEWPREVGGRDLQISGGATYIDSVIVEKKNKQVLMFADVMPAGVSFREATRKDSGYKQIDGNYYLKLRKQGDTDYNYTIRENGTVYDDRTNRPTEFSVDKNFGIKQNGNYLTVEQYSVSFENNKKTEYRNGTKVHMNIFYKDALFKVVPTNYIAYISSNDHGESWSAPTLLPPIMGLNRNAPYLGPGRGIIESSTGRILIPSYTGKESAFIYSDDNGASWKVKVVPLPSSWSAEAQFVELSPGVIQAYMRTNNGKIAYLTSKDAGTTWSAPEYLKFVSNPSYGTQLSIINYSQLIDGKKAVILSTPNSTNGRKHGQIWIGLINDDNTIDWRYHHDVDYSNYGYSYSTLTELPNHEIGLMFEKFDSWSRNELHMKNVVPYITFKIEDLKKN
Sequence of VcSialidase (P0C6E9 25-781): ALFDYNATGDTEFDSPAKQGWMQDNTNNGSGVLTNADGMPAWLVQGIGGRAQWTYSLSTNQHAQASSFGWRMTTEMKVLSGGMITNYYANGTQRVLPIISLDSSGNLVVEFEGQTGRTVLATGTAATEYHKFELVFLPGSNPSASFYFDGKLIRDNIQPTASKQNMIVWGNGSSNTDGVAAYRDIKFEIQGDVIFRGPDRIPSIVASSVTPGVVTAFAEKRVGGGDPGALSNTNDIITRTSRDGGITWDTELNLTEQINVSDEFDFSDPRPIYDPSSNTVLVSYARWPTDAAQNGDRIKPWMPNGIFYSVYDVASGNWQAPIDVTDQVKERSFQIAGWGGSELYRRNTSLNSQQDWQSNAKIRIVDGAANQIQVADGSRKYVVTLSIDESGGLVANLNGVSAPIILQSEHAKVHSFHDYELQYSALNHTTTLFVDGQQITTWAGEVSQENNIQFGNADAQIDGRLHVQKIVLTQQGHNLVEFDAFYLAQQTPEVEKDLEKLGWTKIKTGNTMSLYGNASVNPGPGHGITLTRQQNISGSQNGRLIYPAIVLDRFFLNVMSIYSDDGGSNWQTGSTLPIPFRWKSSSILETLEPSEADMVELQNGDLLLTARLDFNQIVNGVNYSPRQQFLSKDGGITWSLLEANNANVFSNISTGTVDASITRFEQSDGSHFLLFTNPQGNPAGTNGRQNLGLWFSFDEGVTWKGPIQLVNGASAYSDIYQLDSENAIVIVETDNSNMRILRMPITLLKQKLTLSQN
Sequence of hNEU2 (Q9Y3R4 whole entry): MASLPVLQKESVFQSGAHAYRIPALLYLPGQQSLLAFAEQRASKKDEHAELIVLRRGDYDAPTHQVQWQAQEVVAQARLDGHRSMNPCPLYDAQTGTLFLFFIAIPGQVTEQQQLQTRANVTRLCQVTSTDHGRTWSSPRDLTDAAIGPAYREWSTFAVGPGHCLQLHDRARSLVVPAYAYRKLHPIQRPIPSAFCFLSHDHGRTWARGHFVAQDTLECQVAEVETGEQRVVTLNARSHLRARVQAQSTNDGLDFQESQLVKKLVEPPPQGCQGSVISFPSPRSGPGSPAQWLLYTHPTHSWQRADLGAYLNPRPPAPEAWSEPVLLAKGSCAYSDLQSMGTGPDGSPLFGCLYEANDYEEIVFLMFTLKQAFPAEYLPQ
Sequence of SpNanA (P62575 54-1006): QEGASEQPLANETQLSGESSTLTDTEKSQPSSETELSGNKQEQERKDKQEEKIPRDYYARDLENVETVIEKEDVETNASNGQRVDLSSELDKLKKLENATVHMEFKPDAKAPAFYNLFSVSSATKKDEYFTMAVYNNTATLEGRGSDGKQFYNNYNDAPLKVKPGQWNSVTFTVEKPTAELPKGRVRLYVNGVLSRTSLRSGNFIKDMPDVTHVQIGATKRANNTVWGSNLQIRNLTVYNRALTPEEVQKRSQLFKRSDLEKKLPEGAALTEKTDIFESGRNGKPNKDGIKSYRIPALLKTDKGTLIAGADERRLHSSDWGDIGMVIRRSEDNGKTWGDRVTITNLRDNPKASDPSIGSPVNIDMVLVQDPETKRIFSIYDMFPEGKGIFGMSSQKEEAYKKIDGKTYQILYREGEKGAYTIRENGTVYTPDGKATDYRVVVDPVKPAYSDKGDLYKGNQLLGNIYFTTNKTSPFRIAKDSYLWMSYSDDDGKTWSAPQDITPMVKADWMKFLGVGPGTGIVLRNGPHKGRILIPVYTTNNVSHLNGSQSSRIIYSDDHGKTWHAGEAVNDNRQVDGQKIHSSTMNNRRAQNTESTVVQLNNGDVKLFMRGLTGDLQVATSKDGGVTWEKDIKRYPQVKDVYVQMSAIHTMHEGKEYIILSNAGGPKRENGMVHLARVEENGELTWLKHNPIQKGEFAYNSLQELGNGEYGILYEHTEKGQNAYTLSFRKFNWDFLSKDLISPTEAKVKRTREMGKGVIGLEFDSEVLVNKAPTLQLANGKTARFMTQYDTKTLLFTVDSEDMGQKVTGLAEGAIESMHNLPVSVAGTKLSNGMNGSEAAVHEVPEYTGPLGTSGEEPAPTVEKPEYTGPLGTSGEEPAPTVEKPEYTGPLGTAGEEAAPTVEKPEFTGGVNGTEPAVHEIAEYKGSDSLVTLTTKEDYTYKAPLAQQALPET
T1 sequence (Q54727 30-697 S59P/E68D/N393D/K536E/K577E): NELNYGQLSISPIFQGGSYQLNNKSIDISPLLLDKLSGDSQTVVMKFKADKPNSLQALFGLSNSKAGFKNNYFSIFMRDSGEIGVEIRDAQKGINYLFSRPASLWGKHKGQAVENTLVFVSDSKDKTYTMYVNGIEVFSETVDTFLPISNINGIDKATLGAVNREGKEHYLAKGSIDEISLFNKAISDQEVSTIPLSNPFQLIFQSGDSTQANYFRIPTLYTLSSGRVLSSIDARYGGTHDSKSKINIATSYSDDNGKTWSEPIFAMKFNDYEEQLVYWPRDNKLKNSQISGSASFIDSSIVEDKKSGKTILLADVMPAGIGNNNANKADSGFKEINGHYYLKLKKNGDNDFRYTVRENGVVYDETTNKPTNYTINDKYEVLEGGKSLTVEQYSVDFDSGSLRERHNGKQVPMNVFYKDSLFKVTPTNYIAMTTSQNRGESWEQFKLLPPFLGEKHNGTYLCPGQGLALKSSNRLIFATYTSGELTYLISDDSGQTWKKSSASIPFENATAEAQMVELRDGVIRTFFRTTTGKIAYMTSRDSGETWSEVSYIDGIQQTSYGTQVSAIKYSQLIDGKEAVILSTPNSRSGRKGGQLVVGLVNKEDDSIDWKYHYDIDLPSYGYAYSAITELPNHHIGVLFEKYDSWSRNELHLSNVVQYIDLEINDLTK
Sequence of PmST1 (Q15KI8 entry or part of it): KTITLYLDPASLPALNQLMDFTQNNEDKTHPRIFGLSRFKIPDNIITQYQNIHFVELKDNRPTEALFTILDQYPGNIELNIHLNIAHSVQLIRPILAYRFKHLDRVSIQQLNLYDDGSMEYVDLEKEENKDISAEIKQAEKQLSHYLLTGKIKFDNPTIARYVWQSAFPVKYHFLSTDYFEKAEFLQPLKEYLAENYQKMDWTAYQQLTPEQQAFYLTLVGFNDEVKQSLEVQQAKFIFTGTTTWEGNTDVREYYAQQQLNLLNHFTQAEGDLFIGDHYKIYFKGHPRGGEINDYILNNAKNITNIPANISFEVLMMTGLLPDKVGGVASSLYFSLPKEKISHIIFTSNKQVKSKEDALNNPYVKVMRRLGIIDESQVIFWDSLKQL
Sequence of BiNanH2 (A0ACD7UU12 entry or part of it): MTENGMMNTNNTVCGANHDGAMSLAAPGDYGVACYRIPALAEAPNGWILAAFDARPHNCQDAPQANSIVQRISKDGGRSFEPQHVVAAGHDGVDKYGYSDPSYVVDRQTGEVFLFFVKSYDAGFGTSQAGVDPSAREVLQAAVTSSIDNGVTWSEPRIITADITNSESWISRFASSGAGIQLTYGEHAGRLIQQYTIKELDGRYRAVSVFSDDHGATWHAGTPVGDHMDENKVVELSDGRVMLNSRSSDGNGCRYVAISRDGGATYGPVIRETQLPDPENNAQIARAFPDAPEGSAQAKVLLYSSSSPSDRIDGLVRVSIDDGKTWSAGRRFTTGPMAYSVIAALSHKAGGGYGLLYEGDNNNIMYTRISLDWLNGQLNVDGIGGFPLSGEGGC

In the case of `O=C(O)[C@@]12C[C@@H](O)[C@@H](NC3CCCCC3)C(O1)[C@@H]([C@H](O)CO)O2` [2-4], the IC50 [1] is reported as 180 ± 23 µM, the “Percentage inhibition (%) against SpNanB” value [1] is reported as “effective inhibitory activity” and the inhibition at 1000 µM [1] is reported as 86.6 ± 0.3%. For the same molecule, the inhibition at 1000 µM [2, 11] was 16.8 ± 2.4%, the inhibition at 1000 µM [3] was 12.3 ± 1.9% and the “Percentage inhibition (%) against CpNanI” value [4] was 13.6 ± 0.1%. The inhibition at 1000 µM [5] was 3.6 ± 0.1%, the IC50 [6] was greater than 1000 µM and the inhibition at 1000 µM [6] was 1.2 ± 0.7%. For the same molecule, the “Percentage inhibition (%) against SpNanC” value ([7]; 1 mM of each inhibitor, substrate Neu5Acα2-3GalβpNP 0.3 mM, pH 6.5) was “showed inhibition”, the inhibition at 1000 µM [7] was 94.2 ± 0.1% and the inhibition at 1000 µM [8] was 1.2 ± 0.9%. For the same molecule, the IC50 [9] was 500 to 1000 µM, the “Percentage inhibition (%) against SpNanA” value [9] was “weak inhibition” and the inhibition at 1000 µM [9] was 61.2 ± 0.6%.

`CC(=O)N[C@H]1[C@H]2O[C@@](C(=O)O)(C[C@@H]1O)O[C@@H]2[C@H](O)CO` [2-1, 5-Acetamido-2,7-anhydro-3,5-dideoxy-α-D-glycero-D-galacto-non-2-ulopyranosonic acid] was tested, and the inhibition at 1000 µM [1] was 30 ± 1.7%, the inhibition at 1000 µM [2, 11] was 49.4 ± 1.3% and the inhibition at 1000 µM [3] was 10.2 ± 2.8%. The “Percentage inhibition (%) against CpNanI” value [4] was 26.7 ± 3.7%, the inhibition at 1000 µM [5] was 4.6 ± 1.1% and the inhibition at 1000 µM [6] was 22.7 ± 1.2%. The inhibition at 1000 µM [7] was 3 ± 1.9%, the inhibition at 1000 µM [8] was 6.6 ± 1.8% and the “Conversion to Neu5Ac by SpNanB, estimated yield based on TLC” value [10] was 80%. It also gave an inhibition at 1000 µM [9] of 36.4 ± 0.1%.

In the case of `O=C(N[C@H]1[C@H]2O[C@@](C(=O)O)(C[C@@H]1O)O[C@@H]2[C@H](O)CO)C(F)(F)F` [2-2, 2,7-Anhydro-3,5-dideoxy-5-trifluoroacetamido-α-D-glycero-D-galacto-non-2-ulopyranosonic acid], the IC50 [1] is reported as 250 to 500 µM, the “Percentage inhibition (%) against SpNanB” value [1] is reported as “weak inhibition” and the inhibition at 1000 µM [1] is reported as 68.2 ± 2.6%. The “Percentage inhibition (%) against AuSialidase” value [2, 11] was “moderate inhibitory activity”, the inhibition at 1000 µM [2, 11] was 85.1 ± 0.3% and the IC50 ([2]; read-out: IC50 against AuSialidase) was 225 ± 34 µM. For the same molecule, the inhibition at 1000 µM [3] was 11 ± 2.7%, the “Percentage inhibition (%) against CpNanI” value [4] was 44.1 ± 1.0% and the inhibition at 1000 µM [5] was 2.5 ± 2.1%. The IC50 [6] was 500 to 1000 µM, the “Percentage inhibition (%) against VcSialidase” value [6, 11] was “weak inhibition” and the inhibition at 1000 µM [6] was 62.1 ± 0.6%. For the same molecule, the inhibition at 1000 µM [7] was 4.4 ± 2%, the inhibition at 1000 µM [8] was 3.8 ± 2.6% and the “Percentage inhibition (%) against SpNanA” value [9] was “moderate inhibitory activity”. It also gave an inhibition at 1000 µM [9] of 83.8 ± 0.3%.
